According to patent US10633348B2, “Methods to treat lymphoplasmacytic lymphoma” (Dana-Farber Cancer Institute, Inc., priority 2013, dated 2020):

Key:
HCK = assay type: biochemical; settings: read-out: HCK IC50 (nM) Inv
Source text: The in vitro activity of the compounds described herein in inhibiting TAK1, HCK and other kinases were obtained using an Invitrogen Select Screening assay as known in the art. The IC50 values determined from this assay are shown below.

BCWM.1 = assay: CellTiter-Glo cell viability assay; assay type: cell-based
Experimental: (§1) CellTiter-Glo® Luminescent cell viability assay (Promega) was used to assess cell survival following treatment with the compounds described. Cells were seeded into 384 well plates with the EL406 Combination Washer Dispenser (BioTek Instruments, Inc.) and the compounds were injected into the cells culture media with the JANUS Automated Workstation (PerkinElmer Inc.). Cells were treated with a series diluted inhibitors (20˜0.04 μM) for 72 hours at 37° C. Luminescent measurement is performed using the 2104 Envision® Multilabel Reader (PerkinElmer Inc.).

MWCL-1 = assay: CellTiter-Glo cell viability assay; assay type: cell-based
Experimental: as §1

OCI-Ly19 = assay: CellTiter-Glo cell viability assay; assay type: cell-based; settings: Homo sapiens
Experimental: as §1

OCI-Ly3 = assay: CellTiter-Glo cell viability assay; assay type: cell-based
Experimental: as §1

Ramos = assay: CellTiter-Glo cell viability assay; assay type: cell-based; settings: Homo sapiens
Experimental: as §1

OCI-Ly7 = assay: CellTiter-Glo cell viability assay; assay type: cell-based; settings: Homo sapiens, 72 hours
Experimental: as §1

TMD8 = assay: CellTiter-Glo cell viability assay; assay type: cell-based; settings: Homo sapiens, 72 hours
Experimental: as §1

EC50 (OCI-Ly7)	SMILES	IC50 (HCK)	EC50 (BCWM.1; BCWM1, 72 h)	EC50 (MWCL-1; 72 h)	EC50 (OCI-Ly19; OCI-LY19, 72 hours)	EC50 (OCI-Ly3; Homo sapiens, OCI-Ly3, 72 h)	EC50 (Ramos; 72 hours)	EC50 (OCI-Ly19; OCI-LY19, 72 h)	EC50 (Ramos; 72 h)	EC50 (BCWM.1; 72 hours)	EC50 (MWCL-1; 72 hours)	EC50 (OCI-Ly3; 72 hours)	EC50 (TMD8)
–	CCN1CCN(Cc2ccc(NC(=O)c3ccc(C)c(Oc4cc(NC)ncn4)c3)cc2C(F)(F)F)CC1 [(A-1), N-(4-((4-ethylpiperazin-1-yl)methyl)-3-(trifluoromethyl)phenyl)-4-methyl-3-((6-(methylamino)pyrimidin-4-yl)oxy)benzamide]	275 nM	1720 nM	3990 nM	4980 nM	11.5 µM	9.48 µM	–	–	–	–	–	–
–	CCC(=O)Nc1cc(Oc2cc(C(=O)Nc3ccc(CN4CCN(CC)CC4)c(C(F)(F)F)c3)ccc2C)ncn1 [(A-2), N-(4-((4-ethylpiperazin-1-yl)methyl)-3-(trifluoromethyl)phenyl)-4-methyl-3-((6-propionamidopyrimidin-4-yl)oxy)benzamide]	–	42 nM	1350 nM	–	2.96 µM	–	1750 nM	5.34 µM	–	–	–	–
–	CCN1CCN(Cc2ccc(NC(=O)c3ccc(C)c(Oc4cc(NC(=O)C5CC5)ncn4)c3)cc2C(F)(F)F)CC1 [(A-3), 3-((6-(cyclopropanecarboxamido)pyrimidin-4-yl)oxy)-N-(4-((4-ethylpiperazin-1-yl)methyl)-3-(trifluoromethyl)phenyl)-4-methylbenzamide]	–	50 nM	910 nM	–	0.48 µM	–	600 nM	2.68 µM	–	–	–	–
–	CCN1CCN(Cc2ccc(NC(=O)c3ccc(C)c(Oc4cc(Nc5ccn[nH]5)ncn4)c3)cc2C(F)(F)F)CC1 [(A-6), 3-((6-((1H-pyrazol-5-yl)amino)pyrimidin-4-yl)oxy)-N-(4-((4-ethylpiperazin-1-yl)methyl)-3-(trifluoromethyl)phenyl)-4-methylbenzamide]	–	86 nM	118 nM	–	4.77 µM	–	302 nM	3.08 µM	–	–	–	–
–	CCN1CCN(Cc2ccc(NC(=O)c3ccc(C)c(Oc4cc(Nc5cn[nH]c5)ncn4)c3)cc2C(F)(F)F)CC1 [(A-7), 3-((6-((1H-pyrazol-4-yl)amino)pyrimidin-4-yl)oxy)-N-(4-((4-ethylpiperazin-1-yl)methyl)-3-(trifluoromethyl)phenyl)-4-methylbenzamide]	–	48 nM	71 nM	–	4 µM	–	192 nM	3.02 µM	–	–	–	–
–	CCN1CCN(Cc2ccc(NC(=O)c3ccc(C)c(Oc4cc(NNC(C)=O)ncn4)c3)cc2C(F)(F)F)CC1 [(A-9), 3-((6-(2-acetylhydrazinyl)pyrimidin-4-yl)oxy)-N-(4-((4-ethylpiperazin-1-yl)methyl)-3-(trifluoromethyl)phenyl)-4-methylbenzamide]	> 10000 nM	10800 nM	18700 nM	> 20000 nM	19.6 µM	> 20 µM	–	–	6460 nM	> 20000 nM	> 20 µM	–
–	CCN1CCN(Cc2ccc(NC(=O)c3ccc(C)c(Oc4cc(NC5CNC5)ncn4)c3)cc2C(F)(F)F)CC1 [(A-10), 3-((6-(azetidin-3-ylamino)pyrimidin-4-yl)oxy)-N-(4-((4-ethylpiperazin-1-yl)methyl)-3-(trifluoromethyl)phenyl)-4-methylbenzamide]	> 10000 nM	–	24800 nM	> 20000 nM	–	> 20 µM	–	–	–	> 20000 nM	–	–
–	CCN1CCN(Cc2ccc(NC(=O)c3ccc(C)c(Oc4cc(NN(C)C)ncn4)c3)cc2C(F)(F)F)CC1 [(A-11), 3-((6-(2,2-dimethylhydrazinyl)pyrimidin-4-yl)oxy)-N-(4-((4-ethylpiperazin-1-yl)methyl)-3-(trifluoromethyl)phenyl)-4-methylhenzamide]	> 10000 nM	19700 nM	> 20000 nM	> 20000 nM	> 20 µM	> 20 µM	–	–	–	–	–	–
–	CCN1CCN(Cc2ccc(NC(=O)c3ccc(C)c(Oc4cc(Nc5ccn(C)n5)ncn4)c3)cc2C(F)(F)F)CC1 [(A-12), N-(4-((4-ethylpiperazin-1-yl)methyl)-3-(trifluoromethyl)phenyl)-4-methyl-3-((6-((1-methyl-1H-pyrazol-3-yl)amino)pyrimidin-4-yl)oxy)benzamide]	–	38 nM	75 nM	–	–	–	209 nM	2.96 µM	71 nM	71 nM	–	–
–	CCN1CCN(Cc2ccc(NC(=O)c3ccc(C)c(Oc4cc(NC5COC5)ncn4)c3)cc2C(F)(F)F)CC1 [(A-13), N-(4-((4-ethylpiperazin-1-yl)methyl)-3-(trifluoromethyl)phenyl)-4-methyl-3-((6-(oxetan-3-ylamino)pyrimidin-4-yl)oxy)benzamide]	–	–	1760 nM	–	1.2 µM	–	2280 nM	3.26 µM	–	2860 nM	1.73 µM	–
1030 nM	CCN1CCN(Cc2ccc(NC(=O)c3ccc(C)c(Oc4cc(Nc5cnoc5)ncn4)c3)cc2C(F)(F)F)CC1 [(A-16), N-(4-((4-ethylpiperazin-1-yl)methyl)-3-(trifluoromethyl)phenyl)-3-((6-(isoxazol-4-ylamino)pyrimidin-4-yl)oxy)-4-methylbenzamide]	–	610 nM	1710 nM	777 nM	–	1.31 µM	–	–	–	–	–	856 nM
–	C=CC(=O)NNc1cc(Oc2cc(C(=O)Nc3ccc(CN4CCN(CC)CC4)c(C(F)(F)F)c3)ccc2C)ncn1 [(A-18)]	–	1980 nM	4090 nM	–	–	–	2780 nM	7.24 µM	3750 nM	6740 nM	–	–
1120 nM	Cc1ccc(C(=O)Nc2cccc(C(C)(C)C#N)c2)cc1Oc1ncnc2[nH]ccc12 [(I-11), 3-((7H-pyrrolo[2,3-d]pyrimidin-4-yl)oxy)-N-(3-(2-cyanopropan-2-yl)phenyl)-4-methylbenzamide]	–	4950 nM	1440 nM	–	9.69 µM	3.89 µM	–	–	–	–	–	3460 nM

SMILES	EC50 (OCI-Ly7)	IC50 (HCK)	EC50 (BCWM.1; BCWM1, 72 h)	EC50 (MWCL-1; 72 h)	EC50 (OCI-Ly19; OCI-LY19, 72 hours)	EC50 (OCI-Ly3; Homo sapiens, OCI-Ly3, 72 h)	EC50 (Ramos; 72 hours)	EC50 (OCI-Ly19; OCI-LY19, 72 h)	EC50 (Ramos; 72 h)	EC50 (BCWM.1; 72 hours)	EC50 (MWCL-1; 72 hours)	EC50 (OCI-Ly3; 72 hours)	EC50 (TMD8)
CCN1CCN(Cc2ccc(NC(=O)c3ccc(C)c(Oc4ccnc(Nc5cnoc5)n4)c3)cc2C(F)(F)F)CC1 [(A-15), N-(4-((4-ethylpiperazin-1-yl)methyl)-3-(trifluoromethyl)phenyl)-3-((2-(isoxazol-4-ylamino)pyrimidin-4-yl)oxy)-4-methylbenzamide]	786 nM	–	185 nM	718 nM	–	–	–	307 nM	4.68 µM	–	–	–	392 nM
